Results taken from PubChem BioAssay AID179 (DTP/NCI, 2004).
Several values for one entry are separate records, joined by “and”; a condition that tells them apart may be missing. Identical values can stand only once. Activity calls are given as the source filed them.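 Rule for the calls: active = compounds giving half or more protection of infected cells from virus-caused growth loss, again on retest; inactive = the rest.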

Tested on: CEM cells HIV-1 protection, formazan growth assay
Assay: NCI AIDS Antiviral Assay
Conditions: for IC50: measured here: growth of uninfected CEM cells
Method in brief: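 Screen of anti-HIV-1 activity in human CEM cells using a formazan-based growth measurement at five drug concentrations. Hits with 50% or greater protection were repeated, and confirmation required reproducible complete protection.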

| SMILES | EC50 | IC50 | outcome |
| --- | --- | --- | --- |
| O=C(O)CCC(NC(=O)c1ccc(Nc2nc3ccccc3nc2-c2cccs2)cc1)C(=O)O (stereo not given) | > 525 µM | 457 µM |  |
| CC(C)(C)c1nc2c(o1)C(=Nc1ccccc1)c1ccccc1C2=O |  |  | inactive |
| NCCN1CCCCCc2ccccc21 | > 200 µM | 123 µM |  |
| O=C1c2ccccc2-c2nc3ncccc3cc21 | > 200 µM | 33.9 µM |  |
| CC1c2c(cc(OC(=O)c3cccc(S(=O)(=O)F)c3)nc2OC(=O)c2cccc(S(=O)(=O)F)c2)C(=O)N1Cc1ccccc1 (stereo not given) | > 11.2 µM | 1.86 µM |  |
| Cc1cc(NS(=O)(=O)c2ccc(NC(=O)c3cccc4c(NNc5ccc(S(=O)(=O)N=C(N)N)cc5)c5ccccc5nc34)cc2)no1 | > 158 µM | 63.1 µM |  |
| CC1=C(C)C2(C#N)C(=O)N3C(=NC(c4ccccc4)NC3c3ccccc3)C2(C#N)C(c2ccccc2)N1 (stereo not given) | > 100 µM | > 100 µM |  |
| CC1=NNC(=O)C1 | > 200 µM | 66.1 µM |  |
| N#Cc1c([N+](=O)[O-])cc(C(F)(F)F)cc1[N+](=O)[O-] |  |  | inactive |
| O=C1NCC2(CCN(Cc3ccccc3)CC2)N1 | > 200 µM | > 200 µM |  |
| Nc1ccc(/C=C/c2ccc(N=Nc3ccc(/C=C/c4ccc(N=Nc5ccc(/C=C/c6ccc(N=Nc7ccc(/C=C/c8ccc(N)cc8S(=O)(=O)O)c(S(=O)(=O)O)c7)cc6S(=O)(=O)O)c(S(=O)(=O)O)c5)cc4S(=O)(=O)O)c(S(=O)(=O)O)c3)cc2S(=O)(=O)O)c(S(=O)(=O)O)c1 | 1.78 µM | 186 µM |  |
| CC(=O)[C@@H]1[C@@H](OC(=O)CCC(C)COC2OC(CO)C(O)C(O)C2O)C[C@H]2[C@@H]3CC=C4C[C@@H](OC5OC(CO)C(OC6OC(C)C(O)C(O)C6O)C(O)C5OC5OC(C)C(O)C(O)C5O)CC[C@]4(C)[C@H]3CC[C@]12C (stereo not given in full) | > 200 µM | > 200 µM |  |
| N#Cc1ccccc1/C=N/O | > 35.5 µM | > 35.5 µM |  |
| C/C(CC(=O)Nc1ccc(NC(=O)/C(C)=N/NS(=O)(=O)c2ccc(C)cc2)cc1)=N\NS(=O)(=O)c1ccc(C)cc1 | > 158 µM | > 158 µM |  |
| C/C(CN1C(=O)c2ccccc2C1=O)=N\NS(=O)(=O)c1cccc(C(=O)O)c1 | > 309 µM | > 309 µM |  |
| COC(=O)c1ccc(OCc2ccc3nc(-c4ccccc4)c(Cl)nc3c2)cc1 | > 200 µM | > 200 µM |  |
| O=C(O)CCC1c2[nH]c3ccccc3c2CCN1Cc1ccccc1 (stereo not given) |  |  | inactive |
| CC(C)C(/C=C/c1ccc(Br)cc1)=N\NC(N)=O | > 32.4 µM | > 32.4 µM |  |
| O=c1cc2n(c(=O)[nH]1)C1OC(C(O)C1O)[C@H]2CCO (stereo not given in full) |  |  | inactive |
| Cc1cc(N(CCC#N)CCC#N)ccc1/C=C1N=C(/C=C\c2ccccc2)N(c2ccc(Cl)cc2)C\1=O |  |  | inactive |
| Cc1ccc(S(=O)(=O)/C(C#N)=C\NC(=S)N=Nc2c(O)[nH]c3ccccc23)cc1 | > 200 µM | > 200 µM |  |
| COc1ccc2[nH]c3c(c2c1)CCc1c(OC)cccc1-3 | > 200 µM | 178 µM |  |

| SMILES | EC50 | IC50 | outcome |
| --- | --- | --- | --- |
| CC(C(=O)NCNC(=O)c1ccccc1)C(=O)NCc1ccccc1 (stereo not given) |  |  | inactive |
| CCCCN(CC)CC(C(C)=O)c1c(O)c2ccccc2oc1=O (stereo not given) | > 70.8 µM | > 70.8 µM |  |
| N#Cc1nc(/C=C/c2nc(C#N)c(N)o2)oc1N | > 100 µM | > 100 µM |  |
| NCCN1CC2CCC(CC2)C1 | > 200 µM | 182 µM |  |
| OC1c2ccccc2[C@@H]2[C@H]1[C@@H](c1ccccc1)C1(Cc3ccccc3C1O)[C@H]2c1ccccc1 (stereo not given in full) | > 200 µM | 9.12 µM |  |
| CC(=O)O[C@]12CCCCCC1C1(O)C(O)CCCC[C@H]12 (stereo not given in full) | > 200 µM | > 200 µM |  |
| Cc1cccc2[nH]c3cc(O)cc(O)c3c(=O)c12 | > 200 µM | 10.5 µM |  |
| CC12CCC3C(CCC4=CC(=O)C=CC43C)C1CC(O)C(=O)O2 (stereo not given) | > 200 µM | > 200 µM |  |
| Cc1nc(N)c2c(n1)C(C)N(C(=O)c1ccccc1)C2 (stereo not given) | > 135 µM | > 135 µM |  |
| COC(=O)C1C(=O)C(C(=O)OC)C2C(C(=O)OC)C(=O)C(C(=O)OC)C12 (stereo not given) | 166 µM | 355 µM |  |
| CCOC(=O)C1CSCCSC1 | > 174 µM | > 174 µM |  |
| CCOC(=O)/C(C#N)=C/c1cccc(OC)c1 | > 155 µM | > 155 µM |  |
| CC1(c2ccccc2)Sc2ccccc2-n2cccc2C1=O (stereo not given) | 1.05 µM | 3.8 µM |  |
| O=C(OCc1ccccc1)C1CCN1C(c1ccccc1)c1ccccc1 (stereo not given) | > 100 µM | > 100 µM |  |
| S=c1oc(CCCCCCCCc2nn(CNc3ccccc3)c(=S)o2)nn1CNc1ccccc1 | > 200 µM | > 200 µM |  |
| CC1CC(=O)Nc2ccccc2N1C(=O)CN1CCC(CCCCN(C)C)CC1 (stereo not given) | > 251 µM | > 251 µM |  |
| CN1CCCC2[C@@H]3CCC4c5nonc5CC[C@]4(C)C3CC[C@@]21C (stereo not given in full) | > 55 µM | > 55 µM |  |
| CN(C)CCCOc1ccc(/C=C2/CCC/C(=C/c3ccc(OCCCN(C)C)cc3)C2=O)cc1 | > 15.1 µM | 1.05 µM |  |
| Cc1c[nH]c(C(=O)O)c1-c1cccn1-c1ccc(Cl)cc1[N+](=O)[O-] | > 200 µM | 87.1 µM |  |
| CC1CC[C@]2(C(=O)O)CCC3(COC(=O)/C=C\c4ccc(O)cc4)C(=CCC4[C@@]5(C)CC[C@H](O)C(C)(C)C5CC[C@]43C)[C@@H]2[C@H]1C (stereo not given in full) | > 41.7 µM | 11 µM |  |
| C=C(C)C(O)C(O)c1c(OC)ccc2ccc(=O)oc12 (stereo not given) | > 174 µM | > 174 µM |  |
| COc1ccc2c(c1)N(S(=O)(=O)c1ccc(C)cc1)C[C@@H]1c3cc(O)c(OCc4ccccc4)cc3O[C@H]21 |  |  | inactive |

| SMILES | EC50 | IC50 | outcome |
| --- | --- | --- | --- |
| CC(C)(CCCCC(C)(C)[N+](C)(C)C)[N+](C)(C)C | > 200 µM | > 200 µM |  |
| NC(N)=NS(=O)(=O)c1ccc(NC(=O)c2cccc3c(Nc4ccc(S(=O)(=O)N=C(N)N)cc4)c4ccccc4nc23)cc1 | > 29.5 µM | 22.4 µM |  |
| CCOC(=O)N(c1ccccc1)N(CC)C(=O)/C(C)=N/Nc1ccc([N+](=O)[O-])cc1 |  |  | inactive |
| CS(=O)(=O)N1CC(CCl)c2ccc(O)cc21 (stereo not given) | > 200 µM | 1.86 µM |  |
| NC(=O)NC1C(c2ccccc2)=NOC1C(N)=O (stereo not given) | > 200 µM | > 200 µM |  |
| O=C(c1ccccc1)C(c1ccccc1)C1(O)C(=O)Nc2ccc(Br)cc21 (stereo not given) | > 85.1 µM | > 85.1 µM |  |
| Cc1oc(N)c(S(=O)(=O)c2ccc(Cl)cc2)c1C | > 200 µM | 34.7 µM |  |
| S=C(Oc1ccccc1)SSC(=S)Oc1ccccc1 | > 200 µM | 19.1 µM |  |
| NC1=NC(=O)[C@H](Cc2c[nH]c3ccccc23)N1C(=O)OCc1ccccc1 | > 200 µM | 120 µM |  |
| CCC1(O)CCCC2C3CCC4CC(=O)CCC4(C)C3C(=O)CC21C (stereo not given) | > 200 µM | 105 µM |  |
| O=C(O)CCCCCCCCC(=O)O | > 178 µM | > 178 µM |  |
| CC(C)Oc1c(-c2ccc(F)cc2)c(O)c2c3c1oc(=O)n3C=CC2C (stereo not given) | 13.2 µM | 14.8 µM |  |
| CCOC(=O)c1cc(OC(C)=O)c2ccccc2c1 | > 100 µM | 95.5 µM |  |
| COc1ccc2c(c1)CCN=C2c1ccccc1CCCCl | > 200 µM | 2.34 µM |  |
| O=C(O)CCCCCCCCCCCOc1ccccc1 | > 200 µM | 63.1 µM |  |
| Cc1[nH]nc2c1C(=O)C=C(N(CCO)c1ccccc1)C2=O |  |  | inactive |
| CS(=O)(=O)N1CC(CI)c2ccc(O)cc21 (stereo not given) | > 200 µM | 2.4 µM |  |
| Cc1cc(C)nc(/C(=N\NC(N)=O)C(=O)Nc2nc3ccc(C)cc3s2)c1 | > 661 µM | > 661 µM |  |
| O=C(Cc1csc(-c2nc(CC(=O)NNc3ccccc3)cs2)n1)NNc1ccccc1 | > 145 µM | > 145 µM |  |
| CCCCCCCCCCCCCC(=O)CC(=O)c1c(O)cccc1O |  |  | inactive |
| CC(C)(N)C(=O)N[C@@H]1C(=O)N2[C@@H]1SC(C)(C)[C@@H]2C(=O)O | > 200 µM | > 200 µM |  |
| N.N.NCCCCCN.O=C([O-])CC(=O)[O-].O=C([O-])CC(=O)[O-].[Pt+4].[Pt+4] | > 2140 µM | 6.76 µM |  |

| SMILES | EC50 | IC50 | outcome |
| --- | --- | --- | --- |
| Nc1nc2sc3ccccc3c(=O)n2n1 | > 91.2 µM | > 91.2 µM |  |
| Nc1cc(C(F)(F)F)ccc1S | > 200 µM | 22.9 µM |  |
| OCCN1CCN(CC/C=C2/c3ccccc3Sc3ccc(Cl)cc32)CC1 | > 200 µM | 7.41 µM |  |
| N#Cc1nc(NC(=O)c2ccccc2C(=O)O)c(C#N)[nH]1 | > 200 µM | > 200 µM |  |
| CC(=O)Oc1c(Br)ccc2cc(C(Br)Br)c(C(=O)c3ccccc3)nc12 | > 5.01 µM | > 5.01 µM |  |
| c1scc2c1COCCOCCOCCOCCOC2 | > 832 µM | > 832 µM |  |
| O=C(NO)c1ccc(OCc2cccc(Cl)c2)cc1 | > 200 µM | 10 µM |  |
| O=c1oc2cccc(O)c2c(O)c1Cc1ccccc1 | > 200 µM | > 200 µM |  |
| CC1(C)CC2(C)ON=C(c3ccccc3)N2c2ccccc2N1 (stereo not given) | 57.5 µM | 105 µM |  |
| Cn1nc(-c2ccccc2)c(C(=O)/C=C/c2ccc(F)cc2)c(N2CCOCC2)c1=O | > 87.1 µM | > 87.1 µM |  |
| O=C(Nc1ccccc1Cl)c1cc2cc(N=Nc3ccc(Br)cc3)ccc2oc1=O |  |  | inactive |
| COC1N(C2CC(F)C(CO)O2)C(=O)NC(=O)C1(C)Br (stereo not given) | 0.00525 µM and 0.00316 µM | 5.62 µM and 6.03 µM |  |
| COc1ccc2c(c1)c(C(=O)O)cc(=O)n2C | > 200 µM | > 200 µM |  |
| COc1cc(C(=O)[O][Sn]([c]2ccccc2)([c]2ccccc2)[c]2ccccc2)cc(OC)c1OC | > 200 µM | 0.0631 µM |  |
| CCOC(=O)C(NCc1cccc(C(F)(F)F)c1)(NC(=O)CC)C(F)(F)F (stereo not given) | > 200 µM | > 100 µM |  |
| CNC(=O)c1ccccc1[Se][Se]c1ccccc1C(=O)NC | 3.55 µM | 11 µM |  |
| COC(=O)C1=C(C(=O)OC)C23CC1C1C(C(=O)OC)=C(C(=O)OC)C12C1C=CC3C2C(=O)OC(=O)C21 (stereo not given) | > 14.5 µM | > 14.5 µM |  |
| Cc1ccc2c(c1)CSCCO2 | > 105 µM | 14.8 µM |  |
| CC1=C(/C=C/C2=CC(=C\C(=O)O)/CC(C3=C(C)CCCC3(C)C)C2)C(C)(C)CCC1 (stereo not given) |  |  | inactive |
| C1CCCN(N2CCOCC2)CC1 | > 200 µM | > 200 µM |  |
